Laboratory results: patent US10681909B2, “Herbicidal triazoles” (FMC Corporation, priority 2014, dated 2020)

What was measured:
pigweed [1] = assay: Test A preemergence; type: in vivo, Amaranthus retroflexus; settings: Amaranthus retroflexus, pre-emergence, 240 h, 0 to 100 scale (0 no effect, 100 complete control), read-out: Plant response rating, Pigweed; for pest or weed control at 125 g/ha: 125 g ai/ha; for pest or weed control at 500 g/ha: 500 g ai/ha, approx. 10 d
Summary of the method: (§1)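 Test chemicals, formulated in a surfactant-containing non-phytotoxic solvent mixture, are applied either as a directed soil spray to newly planted seeds or as a postemergence application to plants at the one- to two-leaf stage (2–10 cm). All plants grow in a loam soil and sand blend.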

foxtail, giant = assay: Test A postemergence; type: in vivo, Setaria faberii; settings: Setaria faberi, post-emergence, 240 h, 0 to 100 scale (0 no effect, 100 complete control), approx. 10 d, read-out: Plant response rating, Foxtail, Giant; for pest or weed control at 125 g/ha: 125 g ai/ha; for pest or weed control at 500 g/ha: 500 g ai/ha
Summary of the method: as §1

pigweed [2] = assay: Test A postemergence; type: in vivo, Amaranthus retroflexus; settings: Amaranthus retroflexus, post-emergence, 240 h, 0 to 100 scale (0 no effect, 100 complete control), approx. 10 d, read-out: Plant response rating, Pigweed; for pest or weed control at 125 g/ha: 125 g ai/ha; for pest or weed control at 500 g/ha: 500 g ai/ha
Summary of the method: as §1

wheat = assay: Test A postemergence; type: in vivo, Triticum aestivum; settings: Triticum aestivum, post-emergence, 240 h, 0 to 100 scale (0 no effect, 100 complete control), approx. 10 d, read-out: Plant response rating, Wheat; for plant injury at 125 g/ha: 125 g ai/ha; for plant injury at 500 g/ha: 500 g ai/ha
Summary of the method: as §1

sedge, umbrella = assay: Test B flooded paddy test; type: in vivo, Cyperus difformis; settings: Cyperus difformis, 360 h, 125 g ai/ha, applied to paddy water at 2-leaf stage, visual rating after 13 to 15 d, scale 0 (no effect) to 100 (complete control), read-out: Plant response rating, Sedge, Umbrella, Flood
Summary of the method: (§2)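 Pots were flooded to 3 cm above the soil at treatment, and compounds were applied directly into the paddy water. That depth was held throughout. After 13 to 15 d in a greenhouse, plants were rated visually against untreated controls.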

barnyardgrass = assay: Test B flooded paddy test; type: in vivo, Echinochloa crus-galli; settings: Echinochloa crus-galli, 360 h, 125 g ai/ha, applied to paddy water at 2-leaf stage, visual rating after 13 to 15 d, scale 0 (no effect) to 100 (complete control), read-out: Plant response rating, Barnyardgrass, Flood
Summary of the method: as §2

For `CCCn1nc(-c2ccc(F)cc2)nc1Cc1ccnc(C(F)(F)F)c1` [Compound 17, 4-[[3-(4-fluorophenyl)-1-propyl-1H-1,2,4-triazol-5-yl]methyl]-2-(trifluoromethyl)pyridine], the pest or weed control at 125 g/ha (pigweed [1]) was 100%, the pest or weed control at 500 g/ha (pigweed [1]) was 100% and the pest or weed control at 125 g/ha (foxtail, giant) was 90%. It also gave a pest or weed control at 500 g/ha (foxtail, giant) of 90%, a pest or weed control at 125 g/ha (pigweed [2]) of 100% and a pest or weed control at 500 g/ha (pigweed [2]) of 100%. The plant injury at 125 g/ha (wheat) was 60%, the plant injury at 500 g/ha (wheat) was 80% and the pest or weed control at 125 g/ha (sedge, umbrella) was 80%. It also gave a pest or weed control at 125 g/ha (barnyardgrass) of 10%.

Work on `CCn1nc(-c2ccc(F)cc2)nc1C(O)c1ccnc(C(F)(F)F)c1` (stereo not drawn) [Compound 15, α-[1-Ethyl-3-(4-fluorophenyl)-1H-1,2,4-triazol-5-yl]-2-(trifluoromethyl)-4-pyridinemethanol] yielded a pest or weed control at 125 g/ha (pigweed [1]) of 0%, a pest or weed control at 500 g/ha (pigweed [1]) of 0% and a pest or weed control at 125 g/ha (foxtail, giant) of 0%. It also gave a pest or weed control at 500 g/ha (foxtail, giant) of 10%, a pest or weed control at 125 g/ha (pigweed [2]) of 10% and a pest or weed control at 500 g/ha (pigweed [2]) of 70%. For the same compound, the plant injury at 125 g/ha (wheat) was 0%, the plant injury at 500 g/ha (wheat) was 0% and the pest or weed control at 125 g/ha (sedge, umbrella) was 0%. For the same compound, the pest or weed control at 125 g/ha (barnyardgrass) was 0%.

`Cn1nc(-c2ccc(F)cc2)nc1C(O)c1ccnc(C(F)(F)F)c1` (stereo not drawn) [Compound 14, α-[3-(4-fluorophenyl)-1-methyl-1H-1,2,4-triazol-5-yl]-2-(trifluoromethyl)-4-pyridinemethanol] showed a pest or weed control at 125 g/ha (pigweed [1]) of 90%, a pest or weed control at 500 g/ha (pigweed [1]) of 100% and a pest or weed control at 125 g/ha (foxtail, giant) of 20%. The pest or weed control at 500 g/ha (foxtail, giant) was 30%, the pest or weed control at 125 g/ha (pigweed [2]) was 60% and the pest or weed control at 500 g/ha (pigweed [2]) was 90%. For the same compound, the plant injury at 125 g/ha (wheat) was 10%, the plant injury at 500 g/ha (wheat) was 30% and the pest or weed control at 125 g/ha (sedge, umbrella) was 0%. For the same compound, the pest or weed control at 125 g/ha (barnyardgrass) was 0%.
